Measurements taken from patent US11465990B2, “Heterocyclic antiestrogens” (SUN PHARMA ADVANCED RESEARCH COMPANY LIMITED, priority 2015, dated 2022).

System: MCF-7 cells
Experiment: MCF-7 cell growth inhibition assay
Type: cell-based
Details: Homo sapiens, MCF7, 120 h, MCF-7 cells plated in presence of estradiol (1 nM), five days incubation, Presto Blue viability
Description: MCF-7 Cell Growth Inhibition Assay
MCF-7 cells were plated in 96 well plate in the presence of estradiol (1 nM) and incubated overnight. After 24 hours test compound was added at various concentrations and incubated for five days. On the fifth day, cell viability was evaluated using Presto Blue Cell Viability Reagent. Percentage growth inhibition was calculated as follows: 100−[(O.D. of sample)*100/O.D. of vehicle control] wherein O.D. is optical density.

Point of comparison: `CC1=C(c2cc(F)cc(F)c2)C(c2ccc(/C=C\CN3CCN(C)CC3)cc2)Oc2ccc(O)cc21` (stereo not shown) [Compound 83], inhibition at 1 µM 12.9%. Against it:
- CC1=C(c2cccc(O)c2)C(c2ccc(/C=C\CN3CCC(CF)(CF)C3)cc2)Oc2ccc(O)cc21 (stereo not shown) [Compound 67] — higher, 30.1%
- CC1=C(c2cccc(O)c2)C(c2ccc(/C=C/CN(C)CCCCCCCCC(F)F)cc2)Oc2ccc(O)cc21 (stereo not shown) [Compound 70] — higher, 16.9%
- CC1=C(c2cccc(O)c2)C(c2ccc(/C=C\CN(C)CCCCCCCCC(F)F)cc2)Oc2ccc(O)cc21 (stereo not shown) [Compound 71] — higher, 56.8%
- CC1=C(c2cccc(O)c2)C(c2ccc(/C=C\CN3CC[C@@H](CO)C3)cc2)Oc2ccc(O)cc21 (stereo partly shown) [Compound 72] — higher, 31.9%
- CC1=C(c2cc(O)cc(F)c2)C(c2ccc(/C=C\CN3CC[C@@H](C)C3)cc2)Oc2ccc(O)cc21 (stereo partly shown) [Compound 81] — higher, 77.4%

Same assay, conditions: at 1 μM; MCF-7 cells plated in presence of estradiol (1 nM), five days incubation, Presto Blue viability

Point of comparison: `CC1=C(c2cccc(O)c2)C(c2ccc(/C=C\CN3CC[C@@H](C)C3)cc2)Oc2ccc(O)cc21` (stereo partly shown) [Compound 75], “% inhibition” value 74.4%. Against it:
- CC1=C(c2cccc(O)c2)C(c2ccc(C#CCN(C)CCCCCCCCCC(F)F)cc2)Oc2ccc(O)cc21 (stereo not shown) [Compound 69] — lower, 19.8%
- CC1=C(c2cccc(O)c2)C(c2ccc(/C=C/CNCCCCCCCCCF)cc2)Oc2ccc(O)cc21 (stereo not shown) [Compound 79] — lower, 64.8%
- CC1=C(c2cccc(O)c2)C(c2ccc(/C=C/CNCCCCCCCCCF)cc2)Oc2ccc(O)cc21 (stereo not shown) [Compound 80] — lower, 53%
